From patent publication US20250197407A1 (Jazz Pharmaceuticals Ireland Limited, priority 2022, published 2025) come the findings set out here.

For this assay, the target named is SOS1/KRAS WT (Homo sapiens (Human), UniProt Q07889). The experiment in a line: SOS1/KRAS WT HTRF binding assay (FRET-based protein-protein interaction). The conditions noted are these: inhibition of His6-SOS1 (aa564-1049, 40 nM) binding to GST-KRAS-WT (aa1-188, 40 nM); at least two independent replicates; read-out: SOS1/KRAS WT HTRF Binding assay pIC50 (converted). A digest of the protocol: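 Time-resolved FRET at 665 nm, read 4 hr after adding anti-GST-Eu(K) (4 nM) and anti-6His-XL665 (20 nM), tracked SOS1(aa564-1049)–KRAS WT(aa1-188) association. Both proteins were at 40 nM, pre-incubated 60 min at room temperature with compound. Max/min signals came from 0.05% DMSO and 10 μM reference, with four-parameter logistic IC50.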
Sequence of SOS1/KRAS WT (Q07889 564-1049): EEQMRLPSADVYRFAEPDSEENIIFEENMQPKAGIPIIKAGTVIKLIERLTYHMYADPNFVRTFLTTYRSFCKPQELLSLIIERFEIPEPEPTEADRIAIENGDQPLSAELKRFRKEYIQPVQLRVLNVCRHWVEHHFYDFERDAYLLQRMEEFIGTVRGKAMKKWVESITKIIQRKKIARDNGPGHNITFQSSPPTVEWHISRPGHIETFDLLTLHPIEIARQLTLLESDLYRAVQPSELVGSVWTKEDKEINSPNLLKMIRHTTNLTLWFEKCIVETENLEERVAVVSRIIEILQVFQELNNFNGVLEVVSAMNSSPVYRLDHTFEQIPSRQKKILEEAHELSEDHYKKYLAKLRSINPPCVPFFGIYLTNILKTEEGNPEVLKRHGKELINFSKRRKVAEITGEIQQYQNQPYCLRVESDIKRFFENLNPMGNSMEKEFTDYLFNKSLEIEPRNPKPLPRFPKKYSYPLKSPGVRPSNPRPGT
As for `Cc1nnc(N[C@H](C)c2cccc(C(F)(F)CO)c2F)c2cc3c(cc12)C(C)(C)C(=O)N3C1CC1` [Compound 123, 1-cyclopropyl-3,3,5-trimethyl-8-[[(1R)-1-[3-(1,1-difluoro-2-hydroxy-ethyl)-2-fluoro-phenyl]ethyl]amino]pyrrolo[2,3-g]phthalazin-2-one], the IC50 is 8.71 nM.
The figure for `Cc1c([C@@H](C)Nc2nnc(C)c3cc4c(cc23)N(C(C)C)C(=O)C4(C)C)cccc1C(F)(F)C(C)(C)O` [Compound 124, 1-isopropyl-3,3,5-trimethyl-8-[[(1R)-1-[3-(1,1-difluoro-2-hydroxy-2-methyl-propyl)-2-methyl-phenyl]ethyl]amino]pyrrolo[2,3-g]phthalazin-2-one] is 6.17 nM; for `Cc1nnc(N[C@H](C)c2cccc(C(F)(F)C(C)(C)O)c2)c2cc3c(cc12)N(C)C(=O)C31CCOCC1` [Compound 125, 1,8-dimethyl-5-[[(1R)-1-[3-(1,1-difluoro-2-hydroxy-2-methyl-propyl)phenyl]ethyl]amino]spiro [pyrrolo[3,2-g]phthalazine-3,4′-tetrahydropyran]-2-one] it is 6.61 nM; for `CCOC1(C)C(=O)N(C)c2cc3c(N[C@H](C)c4cccc(C(F)(F)C(C)(C)O)c4C)nnc(C)c3cc21` (stereo partly drawn) [Compound 126, 3-ethoxy-1,3,5-trimethyl-8-[[(1R)-1-[3-(1,1-difluoro-2-hydroxy-2-methyl-propyl)-2-methyl-phenyl]ethyl]amino]pyrrolo[2,3-g]phthalazin-2-one] it is 9.12 nM.
For `Cc1c([C@@H](C)Nc2nnc(C)c3cc4c(cc23)N(C2CC2)C(=O)C4(C)C)cccc1C(F)(F)C(C)(C)O` [Compound 127, 1-cyclopropyl-3,3,5-trimethyl-8-[[(1R)-1-[3-(1,1-difluoro-2-hydroxy-2-methyl-propyl)-2-methyl-phenyl]ethyl]amino]pyrrolo[2,3-g]phthalazin-2-one], the IC50 is 12.9 nM.
The value for `Cc1nnc(N[C@H](C)c2cccc(C(F)(F)CO)c2)c2cc3c(cc12)N(C)C(=O)C31CCOCC1` [Compound 128, 1,8-dimethyl-5-[[(1R)-1-[3-(1,1-difluoro-2-hydroxy-ethyl)phenyl]ethyl]amino]spiro [pyrrolo[3,2-g]phthalazine-3,4′-tetrahydropyran]-2-one] was 6.31 nM; that for `Cc1c([C@@H](C)Nc2nnc(C)c3cc4c(cc23)C2(CCOCC2)C(=O)N4C)cccc1C(F)(F)CO` [Compound 129, 1,8-dimethyl-5-[[(1R)-1-[3-(1,1-difluoro-2-hydroxy-ethyl)-2-methyl-phenyl]ethyl]amino]spiro[pyrrolo [3,2-g]phthalazine-3,4′-tetrahydropyran]-2-one] was 6.61 nM; that for `Cc1c([C@@H](C)Nc2nnc(C)c3cc4c(cc23)C2(CCOCC2)C(=O)N4C)cccc1C(F)(F)C(C)(C)O` [Compound 131, 1,8-dimethyl-5-[[(1R)-1-[3-(1,1-difluoro-2-hydroxy-2-methyl-propyl)-2-methyl-phenyl]ethyl]amino]spiro[pyrrolo [3,2-g]phthalazine-3,4′-tetrahydropyran]-2-one] was 7.94 nM.
With `CCOC1(C)C(=O)N(C)c2cc3c(N[C@H](C)c4cccc(C(F)(F)C(C)(C)O)c4F)nnc(C)c3cc21` (stereo partly drawn) [Compound 132, 3-ethoxy-1,3,5-trimethyl-8-[[(1R)-1-[3-(1,1-difluoro-2-hydroxy-2-methyl-propyl)-2-fluoro-phenyl]ethyl]amino]pyrrolo[2,3-g]phthalazin-2-one], the IC50 is 7.94 nM.
Turning to `CCOC1(C)C(=O)N(C)c2cc3c(N[C@H](C)c4cccc(C(F)(F)CO)c4)nnc(C)c3cc21` (stereo partly drawn) [Compound 133, 3-ethoxy-1,3,5-trimethyl-8-[[(1R)-1-[3-(1,1-difluoro-2-hydroxy-ethyl)phenyl]ethyl]amino]pyrrolo [2,3-g]phthalazin-2-one], the IC50 is 8.51 nM.
Take `CCOC1(C)C(=O)N(C)c2cc3c(N[C@H](C)c4cccc(C(F)(F)CO)c4C)nnc(C)c3cc21` (stereo partly drawn) [Compound 134, 3-ethoxy-1,3,5-trimethyl-8-[[(1R)-1-[3-(1,1-difluoro-2-hydroxy-ethyl)-2-methyl-phenyl]ethyl]amino]pyrrolo[2,3-g]phthalazin-2-one]: the IC50 is 6.17 nM.
For the compound `CCOC1(C)C(=O)N(C)c2cc3c(N[C@H](C)c4cccc(C(F)(F)CO)c4F)nnc(C)c3cc21` (stereo partly drawn) [Compound 135, 3-ethoxy-1,3,5-trimethyl-8-[[(1R)-1-[3-(1,1-difluoro-2-hydroxy-ethyl)-2-fluoro-phenyl]ethyl]amino]pyrrolo[2,3-g]phthalazin-2-one], the IC50 is 10 nM.
The value for `COCC1(C)C(=O)N(C2CC2)c2cc3c(N[C@H](C)c4cccc(C(F)(F)C(C)(C)O)c4F)nnc(C)c3cc21` (stereo partly drawn) [Compound 136, 1-cyclopropyl-8-[[(1R)-1-[3-(1,1-difluoro-2-hydroxy-2-methyl-propyl)-2-fluoro-phenyl]ethyl]amino]-3-(methoxymethyl)-3,5-dimethyl-pyrrolo[3,2-g]phthalazin-2-one] was 14.1 nM; that for `COCC1(C)C(=O)N(C2CC2)c2cc3c(N[C@H](C)c4cccc(C(F)(F)C(C)(C)O)c4C)nnc(C)c3cc21` (stereo partly drawn) [Compound 137, 1-cyclopropyl-8-[[(1R)-1-[3-(1,1-difluoro-2-hydroxy-2-methyl-propyl)-2-methyl-phenyl]ethyl]amino]-3-(methoxymethyl)-3,5-dimethyl-pyrrolo[3,2-g]phthalazin-2-one] was 15.8 nM.
The figure for `COCC1(C)C(=O)N(C2CC2)c2cc3c(N[C@H](C)c4cccc(C(F)(F)CO)c4F)nnc(C)c3cc21` (stereo partly drawn) [Compound 138, 1-cyclopropyl-8-[[(1R)-1-[3-(1,1-difluoro-2-hydroxy-ethyl)-2-fluoro-phenyl]ethyl]amino]-3-(methoxymethyl)-3,5-dimethyl-pyrrolo[3,2-g]phthalazin-2-one] is 6.61 nM; for `COC1(C)C(=O)N(C2CC2)c2cc3c(N[C@H](C)c4cccc(C(F)(F)C(C)(C)O)c4F)nnc(C)c3cc21` (stereo partly drawn) [Compound 139, 1-cyclopropyl-3-methoxy-3,5-dimethyl-8-[[(1R)-1-[3-(1,1-difluoro-2-hydroxy-2-methyl-propyl)-2-fluoro-phenyl]ethyl]amino]pyrrolo[2,3-g]phthalazin-2-one] it is 11 nM.
The value for `COC1(C)C(=O)N(C2CC2)c2cc3c(N[C@H](C)c4cccc(C(F)(F)C(C)(C)O)c4C)nnc(C)c3cc21` (stereo partly drawn) [Compound 140, 1-cyclopropyl-3-methoxy-3,5-dimethyl-8-[[(1R)-1-[3-(1,1-difluoro-2-hydroxy-2-methyl-propyl)-2-methyl-phenyl]ethyl]amino]pyrrolo[2,3-g]phthalazin-2-one] was 15.5 nM.
On to `COC1(C)C(=O)N(C)c2cc3c(N[C@H](C)c4cc(F)cc(C(F)(F)CO)c4F)nnc(C)c3cc21` (stereo partly drawn) [Compound 141, 3-methoxy-1,3,5-trimethyl-8-[[(1R)-1-[3-(1,1-difluoro-2-hydroxy-ethyl)-2,5-difluoro-phenyl]ethyl]amino]pyrrolo[2,3-g]phthalazin-2-one], for which the IC50 is 20 nM.
The value for `COC1(C)C(=O)N(C2CC2)c2cc3c(N[C@H](C)c4cccc(C(F)(F)CO)c4)nnc(C)c3cc21` (stereo partly drawn) [Compound 142, 1-cyclopropyl-3-methoxy-3,5-dimethyl-8-[[(1R)-1-[3-(1,1-difluoro-2-hydroxy-ethyl)phenyl]ethyl]amino]pyrrolo [2,3-g]phthalazin-2-one] was 12.9 nM; that for `COC1(C)C(=O)N(C2CC2)c2cc3c(N[C@H](C)c4cccc(C(F)(F)CO)c4C)nnc(C)c3cc21` (stereo partly drawn) [Compound 143, 1-cyclopropyl-3-methoxy-3,5-dimethyl-8-[[(1R)-1-[3-(1,1-difluoro-2-hydroxy-ethyl)-2-methyl-phenyl]ethyl]amino]pyrrolo[2,3-g]phthalazin-2-one] was 11 nM; that for `Cc1nnc(N[C@H](C)c2cccc(C(F)(F)F)c2)c2cc3c(cc12)n(C)c(=O)n3C1CCOC1` (stereo partly drawn) [Compound 144, 1,8-dimethyl-3-tetrahydrofuran-3-yl-5-[[(1R)-1-[3-(trifluoromethyl)phenyl]ethyl]amino]imidazo[4,5-g]phthalazin-2-one] was 11.7 nM.
On to `Cc1nnc(N[C@H](C)c2cccc(C(F)(F)F)c2)c2cc3[nH]c(=O)n(C)c3cc12` [Compound 145, 1,8-dimethyl-5-[[(1R)-1-[3-(trifluoromethyl)phenyl]ethyl]amino]-3H-imidazo[4,5-g]phthalazin-2-one], for which the IC50 is 66.1 nM.
Regarding `Cc1nnc(N[C@H](C)c2cccc(C(F)F)c2F)c2cc3c(cc12)n(C)c(=O)n3[C@H]1CCOC1` [Compound 146, 5-[[(1R)-1-[3-(difluoromethyl)-2-fluoro-phenyl]ethyl]amino]-1,8-dimethyl-3-[(3S)-tetrahydrofuran-3-yl]imidazo[4,5-g]phthalazin-2-one], the IC50 was 12.3 nM.
The value for `Cc1nnc(N[C@H](C)c2cccc(C(F)F)c2F)c2cc3c(cc12)n(C)c(=O)n3C1COC1` [Compound 147, 5-[[(1R)-1-[3-(difluoromethyl)-2-fluoro-phenyl]ethyl]amino]-1,8-dimethyl-3-(oxetan-3-yl)imidazo[4,5-g]phthalazin-2-one] was 12.3 nM; that for `Cc1nnc(N[C@H](C)c2cccc(C(F)(F)F)c2)c2cc3c(cc12)n(C)c(=O)n3CC#N` [Compound 148, 2-[1,8-dimethyl-2-oxo-5-[[(1R)-1-[3-(trifluoromethyl)phenyl]ethyl]amino]imidazo[4,5-g]phthalazin-3-yl]acetonitrile] was 21.4 nM.
The value for `Cc1nnc(N[C@H](C)c2cccc(C(F)(F)F)c2)c2cc3c(cc12)n(C)c(=O)n3C(C)C#N` (stereo partly drawn) [Compound 149, 2-[1,8-dimethyl-2-oxo-5-[[(1R)-1-[3-(trifluoromethyl)phenyl]ethyl]amino]imidazo[4,5-g]phthalazin-3-yl]propanenitrile] was 10.2 nM.
